Reference: the NIST ThermoML archive (doi:10.1021/je900864n)
Numbers after ± are expanded uncertainties.

Tests used:
[1] = 101.33 kPa, Liquid
[2] = refractive index (Na D-line) (dimensionless); details: 101.33 kPa, Liquid, Standard Abbe refractometry
[3] = refractive index (other wavelength) (dimensionless); wn = mass fraction of the nth substance listed; details: 101 kPa, Liquid, Wavelength=632.8 nm, Standard Abbe refractometry
[4] = refractive index (other wavelength) (dimensionless); details: 101 kPa, Liquid, Standard Abbe refractometry

OCCCCO [1,4-butanediol]
Details | mass density [kg/m3] | refractive index
[1], 293.15 K | 1016.37 ± 0.5 | –
[1], 298.15 K | 1013.04 ± 0.49 | –
[1], 303.15 K | 1009.96 ± 0.48 | –
[1], 308.15 K | 1006.75 ± 0.47 | –
[1], 313.15 K | 1003.55 ± 0.46 | –
[1], 318.15 K | 1000.72 ± 0.45 | –
[2], 294.23 K | – | 1.4447 ± 0.0005
[2], 297.67 K | – | 1.4437 ± 0.0005
[2], 300.86 K | – | 1.4428 ± 0.0005
[2], 303.23 K | – | 1.4422 ± 0.0005
[2], 306.21 K | – | 1.4414 ± 0.0005
[2], 309.13 K | – | 1.4406 ± 0.0005
[2], 313.69 K | – | 1.4393 ± 0.0005

OCCCCO [1,4-butanediol] + CCCCn1cc[n+](C)c1.F[B-](F)(F)F
[3]
Details | refractive index
296.24 K, w2 = 0.894 | 1.4221 ± 0.0004
298.19 K, w2 = 0.894 | 1.4216 ± 0.0004
300.13 K, w2 = 0.894 | 1.4211 ± 0.0004
301.24 K, w2 = 0.786 | 1.4216 ± 0.0004
302.15 K, w2 = 0.894 | 1.4206 ± 0.0004
303.16 K, w2 = 0.786 | 1.4211 ± 0.0004
303.25 K, w2 = 0.686 | 1.4223 ± 0.0004
304.14 K, w2 = 0.894 | 1.42 ± 0.0004
304.22 K, w2 = 0.579 | 1.4237 ± 0.0004
304.24 K, w2 = 0.786 | 1.4208 ± 0.0004
305.26 K, w2 = 0.686 | 1.4218 ± 0.0004
306.24 K, w2 = 0.579 | 1.4231 ± 0.0004
306.25 K, w2 = 0.094 | 1.4367 ± 0.0004
306.69 K, w2 = 0.894 | 1.4194 ± 0.0004
306.7 K, w2 = 0.484 | 1.4247 ± 0.0004
307.2 K, w2 = 0.094 | 1.4364 ± 0.0004
307.21 K, w2 = 0.786 | 1.42 ± 0.0004
307.29 K, w2 = 0.686 | 1.4212 ± 0.0004
308.22 K, w2 = 0.484 | 1.4243 ± 0.0004
308.24 K, w2 = 0.094 | 1.4361 ± 0.0004
308.27 K, w2 = 0.579 | 1.4225 ± 0.0004
309.2 K, w2 = 0.686 | 1.4207 ± 0.0004
309.23 K, w2 = 0.094 | 1.4358 ± 0.0004
309.24 K, w2 = 0.786 | 1.4195 ± 0.0004
309.26 K, w2 = 0.381 | 1.4264 ± 0.0004
309.55 K, w2 = 0.19 | 1.4322 ± 0.0004
309.73 K, w2 = 0.484 | 1.4238 ± 0.0004
309.88 K, w2 = 0.286 | 1.4289 ± 0.0004
310.17 K, w2 = 0.094 | 1.4355 ± 0.0004
310.22 K, w2 = 0.579 | 1.422 ± 0.0004
310.64 K, w2 = 0.381 | 1.426 ± 0.0004
311.22 K, w2 = 0.286 | 1.4285 ± 0.0004
311.22 K, w2 = 0.686 | 1.4202 ± 0.0004
311.25 K, w2 = 0.19 | 1.4317 ± 0.0004
311.33 K, w2 = 0.484 | 1.4234 ± 0.0004
311.85 K, w2 = 0.786 | 1.4188 ± 0.0004
312.19 K, w2 = 0.579 | 1.4214 ± 0.0004
312.27 K, w2 = 0.094 | 1.4349 ± 0.0004
312.31 K, w2 = 0.381 | 1.4255 ± 0.0004
312.78 K, w2 = 0.19 | 1.4312 ± 0.0004
312.88 K, w2 = 0.484 | 1.4229 ± 0.0004
313 K, w2 = 0.286 | 1.4279 ± 0.0004
313.28 K, w2 = 0.686 | 1.4196 ± 0.0004
313.79 K, w2 = 0.381 | 1.4251 ± 0.0004
314.29 K, w2 = 0.19 | 1.4308 ± 0.0004
314.29 K, w2 = 0.579 | 1.4208 ± 0.0004
314.31 K, w2 = 0.484 | 1.4225 ± 0.0004
314.32 K, w2 = 0.094 | 1.4343 ± 0.0004
314.39 K, w2 = 0.286 | 1.4275 ± 0.0004
315.65 K, w2 = 0.381 | 1.4246 ± 0.0004
315.79 K, w2 = 0.286 | 1.4271 ± 0.0004
316.13 K, w2 = 0.19 | 1.4302 ± 0.0004
317.3 K, w2 = 0.19 | 1.4299 ± 0.0004
317.35 K, w2 = 0.286 | 1.4266 ± 0.0004
317.38 K, w2 = 0.381 | 1.4241 ± 0.0004

CCCCn1cc[n+](C)c1.F[B-](F)(F)F [1-butyl-3-methylimidazolium tetrafluoroborate]
[1]
Details | mass density [kg/m3]
293.15 K | 1210.05 ± 1.2
298.15 K | 1206.32 ± 1.2
303.15 K | 1202.59 ± 1.2
308.15 K | 1198.97 ± 1.2
313.15 K | 1195.24 ± 1.1

[4], Wavelength=632.8 nm
Details | refractive index
286.91 K | 1.4228 ± 0.0004
288.89 K | 1.4223 ± 0.0004
290.92 K | 1.4218 ± 0.0005
293.04 K | 1.4212 ± 0.0005
295.03 K | 1.4207 ± 0.0004
297.04 K | 1.4202 ± 0.0004
299.02 K | 1.4197 ± 0.0004
304.12 K | 1.4184 ± 0.0004
309.02 K | 1.4171 ± 0.0005
314.35 K | 1.4157 ± 0.0004
318.92 K | 1.4146 ± 0.0004

OCCCO [propan-1,3-diol]
[1]
Details | mass density [kg/m3]
293.15 K | 1053.48 ± 0.26
298.15 K | 1050.28 ± 0.26
303.15 K | 1047.26 ± 0.25
308.15 K | 1044.11 ± 0.25
313.15 K | 1040.94 ± 0.24

[4], Wavelength=63.28 nm
Details | refractive index
287.46 K | 1.4396 ± 0.0004
288.88 K | 1.4392 ± 0.0004
290.94 K | 1.4387 ± 0.0004
293.1 K | 1.4381 ± 0.0004
295.16 K | 1.4375 ± 0.0004
297.02 K | 1.437 ± 0.0004
299.09 K | 1.4365 ± 0.0004
301.21 K | 1.4359 ± 0.0004

OCCCO [propan-1,3-diol] + CCCCn1cc[n+](C)c1.F[B-](F)(F)F
[3]
Details | refractive index
286.8 K, w2 = 0.698 | 1.424 ± 0.0005
286.81 K, w2 = 0.796 | 1.4233 ± 0.0005
287.24 K, w2 = 0.901 | 1.4228 ± 0.0005
288.87 K, w2 = 0.796 | 1.4228 ± 0.0005
288.88 K, w2 = 0.901 | 1.4224 ± 0.0005
289.37 K, w2 = 0.698 | 1.4234 ± 0.0005
290.78 K, w2 = 0.602 | 1.4239 ± 0.0005
290.86 K, w2 = 0.796 | 1.4223 ± 0.0005
291 K, w2 = 0.901 | 1.4219 ± 0.0005
291.2 K, w2 = 0.698 | 1.4229 ± 0.0005
292.89 K, w2 = 0.796 | 1.4218 ± 0.0005
292.95 K, w2 = 0.901 | 1.4214 ± 0.0005
293.29 K, w2 = 0.602 | 1.4232 ± 0.0005
293.3 K, w2 = 0.698 | 1.4223 ± 0.0005
294.94 K, w2 = 0.698 | 1.4219 ± 0.0005
294.99 K, w2 = 0.901 | 1.4209 ± 0.0005
295.08 K, w2 = 0.602 | 1.4227 ± 0.0005
295.86 K, w2 = 0.796 | 1.4211 ± 0.0005
296.02 K, w2 = 0.513 | 1.4235 ± 0.0007
296.98 K, w2 = 0.602 | 1.4222 ± 0.0005
297 K, w2 = 0.901 | 1.4204 ± 0.0005
297.16 K, w2 = 0.0947 | 1.4328 ± 0.0004
297.94 K, w2 = 0.698 | 1.4211 ± 0.0005
297.96 K, w2 = 0.796 | 1.4206 ± 0.0005
298.14 K, w2 = 0.513 | 1.4229 ± 0.0005
298.49 K, w2 = 0.0947 | 1.4325 ± 0.0004
298.98 K, w2 = 0.602 | 1.4217 ± 0.0005
299.51 K, w2 = 0.384 | 1.4245 ± 0.0005
299.54 K, w2 = 0.299 | 1.4263 ± 0.0005
299.6 K, w2 = 0.194 | 1.4289 ± 0.0006
300 K, w2 = 0.0947 | 1.4321 ± 0.0005
300 K, w2 = 0.513 | 1.4224 ± 0.0005
300 K, w2 = 0.901 | 1.4196 ± 0.0005
301.08 K, w2 = 0.194 | 1.4285 ± 0.0004
301.1 K, w2 = 0.602 | 1.4211 ± 0.0004
301.22 K, w2 = 0.384 | 1.424 ± 0.0005
301.4 K, w2 = 0.299 | 1.4258 ± 0.0005
301.52 K, w2 = 0.0947 | 1.4317 ± 0.0005
302.02 K, w2 = 0.513 | 1.4218 ± 0.0005
302.17 K, w2 = 0.194 | 1.4282 ± 0.0006
303.06 K, w2 = 0.0947 | 1.4313 ± 0.0004
303.53 K, w2 = 0.384 | 1.4234 ± 0.0005
303.55 K, w2 = 0.299 | 1.4252 ± 0.0005
304.01 K, w2 = 0.513 | 1.4212 ± 0.0005
304.13 K, w2 = 0.194 | 1.4276 ± 0.0005
304.93 K, w2 = 0.513 | 1.4209 ± 0.0005
305.12 K, w2 = 0.0947 | 1.4308 ± 0.0004
305.28 K, w2 = 0.384 | 1.4229 ± 0.0005
305.3 K, w2 = 0.299 | 1.4247 ± 0.0005
305.51 K, w2 = 0.194 | 1.4272 ± 0.0005
307.32 K, w2 = 0.194 | 1.4267 ± 0.0005
307.43 K, w2 = 0.299 | 1.4241 ± 0.0005
307.44 K, w2 = 0.384 | 1.4223 ± 0.0005
308.96 K, w2 = 0.384 | 1.4219 ± 0.0005
309.08 K, w2 = 0.299 | 1.4236 ± 0.0005
